Here are results for nine compounds from ChEMBL document CHEMBL4130376, “Discovery of methylsulfonyl indazoles as potent and orally active respiratory syncytial Virus(RSV) fusion inhibitors” (Eur J Med Chem, 2017).

Data set [1] can be described thus: Metabolic stability in human liver microsomes by high-throughput screening based assay. It counts as ADME, microsome. Conditions: read-out: Stability. Background: Liver microsomes are vesicles of endoplasmic reticulum, rich in cytochrome P450 enzymes.
Data set [2] can be described thus: Metabolic stability in mouse liver microsomes by high-throughput screening based assay. In kind it is ADME, microsome. Conditions: read-out: Stability.
The nature of data set [3]: Effective permeability of the compound by PAMPA. It counts as ADME. The note with it: read-out: Peff. On the technique in general: In PAMPA a lipid-coated filter parts donor from acceptor wells.
Data set [4] can be described thus: Half life in ICR mouse at […], po. Conditions: in vivo. It counts as ADME, organism-based.
Data set [5] is described as follows: Plasma clearance in ICR mouse at 2 mg/kg, iv. In kind it is ADME, organism-based.
Data set [6] in a line: Cmax in ICR mouse at […], po. Conditions: in vivo. In kind it is ADME, organism-based. Details: dose 8.3 mg/kg, route oral.
The nature of data set [7]: Metabolic stability in rat liver microsomes by high-throughput screening based assay. It counts as ADME, microsome. The note with it: read-out: Stability.
Data set [8] relates to Mus musculus. Description: AUC (0 to 24 hrs) in ICR mouse at […], po. In kind it is ADME, organism-based. On the set-up: time < 24 hr, dose 8.3 mg/kg, route oral. Conditions: in vivo.
The nature of data set [9]: Volume of distribution at steady state in ICR mouse at 2 mg/kg, iv. In kind it is ADME, organism-based. The note with it: in vivo, read-out: Vdss.
The nature of data set [10]: Tmax in ICR mouse at […], po. In kind it is ADME, organism-based. Conditions: in vivo.
The nature of data set [11]: Half life in ICR mouse at 2 mg/kg, iv. It counts as ADME, organism-based. Conditions: in vivo.
A short description of data set [12]: Cmax in ICR mouse at 2 mg/kg, iv. The note with it: in vivo. On the set-up: dose 2 mg/kg, route intravenous. It counts as ADME, organism-based.
The subject of data set [13] is Mus musculus. Description: (§1) AUC (0 to 24 hrs) in ICR mouse at 2 mg/kg, iv. It counts as ADME, organism-based. On the set-up: time < 24 hr, dose 2 mg/kg, route intravenous. The note with it: in vivo, 24 h.
Data set [14] deals with Mus musculus. Put plainly: Oral bioavailability in ICR mouse at […]. It counts as ADME, organism-based. Conditions: in vivo.
Data set [15] is described as follows: Cmax in ICR mouse at 12.5 mg/kg, po. In kind it is ADME, organism-based. Details: dose 12.5 mg/kg, route oral. The note with it: in vivo.
The nature of data set [16]: AUC (0 to 24 hrs) in ICR mouse at 12.5 mg/kg, po. It counts as ADME, organism-based. On the set-up: time < 24 hr, dose 12.5 mg/kg, route oral. The note with it: in vivo.
Data set [17] can be described thus: Tmax in ICR mouse at 12.5 mg/kg, po. It counts as ADME, organism-based. Conditions: in vivo.
Data set [18] in a line: Half life in ICR mouse at 12.5 mg/kg, po. It counts as ADME, organism-based. Conditions: in vivo.
The nature of data set [19]: Oral bioavailability in ICR mouse at 12.5 mg/kg. In kind it is ADME, organism-based. Conditions: in vivo.
Data set [20] in a line: as §1. On the set-up: time < 24 hr, dose 2 mg/kg, route intravenous. Conditions: ICR, in vivo. It counts as ADME, organism-based.
Data set [21] is described as follows: Cmax in rat at 10 mg/kg, po. It counts as ADME, organism-based. Details: dose 10 mg/kg, route oral. The note with it: in vivo.
The nature of data set [22]: Half life in rat at 10 mg/kg, po. In kind it is ADME, organism-based. Conditions: in vivo.
Data set [23] can be described thus: AUC (0 to 24 hrs) in rat at 2 mg/kg, iv. The note with it: in vivo. It counts as ADME, organism-based. On the set-up: dose 2 mg/kg, time < 24 hr, route intravenous.
Data set [24] in a line: Half life in rat at 2 mg/kg, iv. It counts as ADME, organism-based. Conditions: in vivo.
Data set [25] is described as follows: AUC (0 to 24 hrs) in rat at 10 mg/kg, po. It counts as ADME, organism-based. On the set-up: time < 24 hr, dose 10 mg/kg, route oral. The note with it: in vivo.
Data set [26] in a line: Volume of distribution at steady state in rat at 2 mg/kg, iv. The note with it: in vivo, read-out: Vdss. In kind it is ADME, organism-based.
Data set [27] in a line: Plasma clearance in rat at 2 mg/kg, iv. It counts as ADME, organism-based.
Data set [28] in a line: Cmax in rat at 2 mg/kg, iv. It counts as ADME, organism-based. On the set-up: dose 2 mg/kg, route intravenous. The note with it: in vivo.
The nature of data set [29]: Oral bioavailability in rat at 10 mg/kg. Conditions: in vivo. It counts as ADME, organism-based.
Data set [30] can be described thus: Tmax in rat at 10 mg/kg, po. Conditions: in vivo. It counts as ADME, organism-based.

With `CS(=O)(=O)CCn1c(Cc2cn(S(C)(=O)=O)c3ccccc23)nc2ccccc21`, the CLhep predicted in data set [1] was 16.5 mL/min/kg; in data set [2] it was 73.2 mL/min/kg.
As for `CS(=O)(=O)CCn1c(Cn2cc(S(C)(=O)=O)c3ccccc32)nc2ccccc21`, the Papp in [3] worked out at 4.87 ×10⁻⁶ cm/s. Also, the values for the CLhep predicted in data set [1] and in data set [2] were 7.33 to 9 mL/min/kg and 19.7 mL/min/kg, respectively.
On to `CS(=O)(=O)c1nn(Cc2nc3cc(Cl)ccc3n2CCC(F)(F)F)c2cnccc12`, for which the half-life in data set [4] was 3.16 h; in [11], 1.03 h. The clearance in data set [5] came to 12.2 mL/min/kg. Further, the Cmax in data set [6] was found to be 589 ng/mL; in data set [12], 1940 ng/mL. Further, the CLhep predicted in data set [7] was 0.28 mL/min/kg; in [1] it was 1.09 mL/min/kg; in data set [2] it was 18 mL/min/kg. In data set [3], the Papp came to 2.81 ×10⁻⁶ cm/s. Further, the values for the AUC with Mus musculus [8] and in the data set on Mus musculus [13] were 2730 ng·h/mL and 4830 ng·h/mL, respectively. Further, the Vd in data set [9] was determined as 1.04 L/kg. Moreover, in data set [10], the Tmax came out at 1 h. For the same compound, the F with Mus musculus [14] turned out to be 42.8%.
As to `CS(=O)(=O)c1nn(Cc2nc3cc(Cl)ccc3n2CCCCC(F)(F)F)c2cnccc12`, the CLhep predicted in [7] is 6.15 mL/min/kg; in data set [1], 4.57 mL/min/kg; in data set [2] it was 22.7 mL/min/kg. In addition, the Papp in [3] stood at 0.95 ×10⁻⁶ cm/s.
Regarding `CS(=O)(=O)c1nn(Cc2nc3cc(Cl)ccc3n2CCCO)c2cnccc12`, the Cmax worked out at 155 ng/mL in [15] and 1730 ng/mL in data set [12]. The AUC(0-t) at 24 h came out at 891 ng·h/mL in [16] and 954 ng·h/mL in data set [20]. The Tmax in [17] is 0.5 h. In [5], this compound came in with a clearance of 37.4 mL/min/kg. The CLhep predicted in data set [7] was 14.9 mL/min/kg; in [1], 2.96 mL/min/kg; in [2], 15.3 mL/min/kg. In addition, the Papp in data set [3] came to 3.47 ×10⁻⁶ cm/s. Further, the Vd in data set [9] was determined as 8.3 L/kg. The half-life in data set [18] was 6.6 h; in data set [11], 4.05 h. Moreover, the bioavailability in data set [19] was 17.1%.
Turning to `CN(C)S(=O)(=O)c1cn(Cc2nc3cc(Cl)ccc3n2CCCS(C)(=O)=O)c2ccccc12`, the values for the CLhep predicted in data set [7], in [1] and in data set [2] were 56.2 mL/min/kg, 21.9 mL/min/kg and 81.7 mL/min/kg, respectively. Moreover, the Papp in [3] was 1.55 ×10⁻⁶ cm/s.
For `CS(=O)(=O)CCCn1c(Cn2nc(S(C)(=O)=O)c3ccccc32)nc2cc(Cl)ccc21`, the Cmax in data set [21] came to 22.2 ng/mL; in [28], 1160 ng/mL. Also, the half-life was 3.66 h in data set [22] and 3.91 h in data set [24]. Further, in [3], the Papp was found to be 2.78 ×10⁻⁶ cm/s. The results for the CLhep predicted in data set [1] and in data set [2] were 3.42 mL/min/kg and 14.9 mL/min/kg, respectively. Further, the exposure AUC(0-t) at 24 h stood at 2470 ng·h/mL in [23] and 204 ng·h/mL in [25]. The Vd in [26] was determined as 2.5 L/kg. The clearance in data set [27] stood at 17.4 mL/min/kg. This compound also displayed a bioavailability in [29] of 1.7%. Further, the Tmax in [30] came to 2.67 h.
`CS(=O)(=O)CCCc1c(CN2C(=O)C3(CC3)c3ccncc32)nc2cc(Cl)ccn12`: the values for the CLhep predicted in data set [1] and in data set [2] were 11.7 mL/min/kg and 83.3 mL/min/kg, respectively.
For the compound `CS(=O)(=O)c1nn(Cc2nc3cc(Cl)ccc3n2CCC(O)C(F)(F)F)c2cnccc12` (stereo not given), the figures for the CLhep predicted in [7], in data set [1] and in data set [2] were 18 mL/min/kg, 4.51 mL/min/kg and 26.5 mL/min/kg, respectively. For the same compound, the Papp in [3] is 4.29 ×10⁻⁶ cm/s.

By half-life is commonly meant the time needed for the level to fall by half in the phase considered. Usually clearance stands for a measure of how efficiently the substance is removed, as volume per time. The low end stands for a low capacity for elimination, the high end for a high capacity for elimination. Usually Cmax stands for the maximum level reached in the sampled fluid or tissue. The term AUC denotes the area under the concentration-time curve, a measure of exposure. A higher AUC goes with more exposure. One may read the Tmax as the time at which the peak concentration occurs. In general, AUC(0-t) refers to exposure summed from dosing to a finite time, without extrapolation to infinity. For orientation: bioavailability means dose-corrected exposure relative to a reference, in per cent. The low end stands for little systemic uptake, the high end for much systemic uptake.
